Measured values as given in ChEMBL document CHEMBL5154927, “Discovery of Novel Bicyclic Phenylselenyl-Containing Hybrids: An Orally Bioavailable, Potential, and Multiacting Class of Estrogen Receptor Modulators against Endocrine-Resistant Breast Cancer” (J Med Chem, 2022).
Active and inactive are the calls of the source. The calls are words filed in the database; no cut-off is given here.

What was measured:
[1] = Tmax in BALB/C mouse at 20 mg/kg, po by LC-MS/MS analysis; format: ADME, organism-based; conditions: in vivo
[2] = biological target: T1, Hexokinase-1 (Homo sapiens) (UniProt P19367); assay: Binding affinity to hexokinase-1 in human MCF7 cell lysate measured after overnight incubation by LC-MS/MS analysis; format: subcellular; conditions: filed as antagonist, time 14.0 hrs
T1 sequence (whole entry): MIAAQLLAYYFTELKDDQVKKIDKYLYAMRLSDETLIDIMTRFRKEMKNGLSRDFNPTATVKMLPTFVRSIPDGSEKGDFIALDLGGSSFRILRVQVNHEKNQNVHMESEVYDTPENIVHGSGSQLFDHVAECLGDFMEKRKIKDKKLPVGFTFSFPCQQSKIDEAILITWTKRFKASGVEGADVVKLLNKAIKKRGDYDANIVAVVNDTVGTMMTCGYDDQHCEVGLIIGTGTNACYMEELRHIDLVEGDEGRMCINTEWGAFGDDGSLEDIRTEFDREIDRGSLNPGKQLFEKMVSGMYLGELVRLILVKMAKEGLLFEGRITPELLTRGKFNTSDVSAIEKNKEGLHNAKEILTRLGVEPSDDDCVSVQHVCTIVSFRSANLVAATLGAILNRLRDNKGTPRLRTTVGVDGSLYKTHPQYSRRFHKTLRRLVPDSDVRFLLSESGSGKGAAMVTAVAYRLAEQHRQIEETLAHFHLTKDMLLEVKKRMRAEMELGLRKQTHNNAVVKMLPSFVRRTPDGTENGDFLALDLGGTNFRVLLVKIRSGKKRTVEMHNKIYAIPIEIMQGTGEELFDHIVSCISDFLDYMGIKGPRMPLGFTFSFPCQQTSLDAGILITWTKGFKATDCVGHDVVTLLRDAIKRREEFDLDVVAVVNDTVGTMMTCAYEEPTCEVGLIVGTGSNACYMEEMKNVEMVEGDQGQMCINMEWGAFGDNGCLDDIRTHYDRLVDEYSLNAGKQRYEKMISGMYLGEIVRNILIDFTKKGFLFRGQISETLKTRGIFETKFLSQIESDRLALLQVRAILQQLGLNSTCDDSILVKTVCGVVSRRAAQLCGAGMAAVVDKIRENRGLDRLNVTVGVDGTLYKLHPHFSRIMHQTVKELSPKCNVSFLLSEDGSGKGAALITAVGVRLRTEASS

[3] = Toxicity in BALB/C mouse xenografted with human MCF7 cells assessed as morphological changes in kidney at 10 to 20 mg/kg, po by hematoxylin and eosin staining based analysis; format: organism-based; conditions: in vivo, dose 10-20 mg/kg
[4] = AUC in BALB/C mouse at 5 mg/kg, iv by LC-MS/MS analysis; format: ADME, organism-based; parameters: dose 5 mg/kg, route iv; conditions: in vivo
MCF7 [5] = assay: Induction of apoptosis in human MCF7 cells assessed as increase in late apoptotic cells at 0.5 to 4 uM incubated for 48 hrs by annexin V-FITC staining based flow cytometry; format: functional, cell-based; conditions: dose 0.5-4 µM
[6] = Half life in BALB/C mouse at 5 mg/kg, iv by LC-MS/MS analysis; format: ADME, organism-based; conditions: in vivo
[7] = Toxicity in BALB/C mouse xenografted with human MCF7 cells assessed as change in body weight at 10 to 20 mg/kg, po measured every 2 days for 34 days; format: organism-based; conditions: in vivo, 816 h, dose 10-20 mg/kg, time 34 day
LCC2 [8] = assay: Induction of apoptosis in tamoxifen-resistant human LCC2 cells at 5 to 30 uM incubated for 48 hrs by annexin V-FITC staining based flow cytometry; format: functional, cell-based; conditions: dose 5-30 µM
[9] = Tmax in BALB/C mouse at 5 mg/kg, iv by LC-MS/MS analysis; format: ADME, organism-based; conditions: in vivo
LCC2 [10] = assay: Downregulation of hexokinase-1 expression in tamoxifen-resistant human LCC2 cell outer mitochondrial membrane measured after 24 hrs by Western blot analysis; format: functional; conditions: Mitochondria
[11] = Antiproliferative activity against human MCF-10A cells assessed as reduction in cell viability measured after 72 hrs by Cell Counting Kit-8 assay; format: toxicity, cell-based
LCC2 [12] = assay: Induction of apoptosis in tamoxifen-resistant human LCC2 cells assessed as decrease in Bcl2 level at 5 to 30 uM incubated for 48 hrs by western blot analysis; format: functional, cell-based; conditions: dose 5-30 µM
LCC2 [13] = assay: Induction of apoptosis in tamoxifen-resistant human LCC2 cells assessed as decrease in Bcl-2/Bax ratio by western blot analysis; format: functional, cell-based; conditions: DDE = dose-dependent effect
[14] = Oral bioavailability in BALB/C mouse at 20 mg/kg by LC-MS/MS analysis; format: ADME, organism-based; conditions: in vivo
MCF7 [15] = assay: Induction of ROS production in human MCF7 cells at 1 to 4 uM measured after 48 hrs by DCFH-DA staining based confocal laser scanning microscopic method; format: functional, cell-based; conditions: dose 1-4 µM
MCF7 [16] = assay: Antitumor activity against human MCF7 cells xenografted in BALB/C mouse assessed as suppression of tumor growth at 10 to 20 mg/kg, po measured every 2 days for 34 days; format: functional, organism-based; conditions: dose 10-20 mg/kg, time 34.0 day
MCF7 [17] = assay: Antitumor activity against human MCF7 cells xenografted in BALB/C mouse assessed as increase in tumor necrosis area at 20 mg/kg, po […]; format: functional, organism-based
[18] = Cmax in BALB/C mouse at 20 mg/kg, po by LC-MS/MS analysis; format: ADME, organism-based; parameters: dose 20 mg/kg, route po; conditions: in vivo
[19] = Clearance in BALB/C mouse at 5 mg/kg, iv by LC-MS/MS analysis; format: ADME, organism-based; conditions: in vivo
MCF7 [20] = assay: Induction of apoptosis in human MCF7 cells assessed as increase in Bax level at 0.5 to 4 uM incubated for 48 hrs by western blot analysis; format: functional, cell-based; conditions: dose 0.5-4 µM
MCF7 [21] = assay: Induction of mitochondrial membrane potential loss in human MCF7 cells at 1 uM incubated for 48 hrs by JC-1 staining based flow cytometry relative to control; format: functional
[22] = biological target: T1, Hexokinase-1 (Homo sapiens); assay: Inhibition of human recombinant hexokinase-1 assessed as NADPH generation measured after 1 hr by HPLC analysis; conditions: DDE = dose-dependent effect
MCF7 [23] = assay: Downregulation of hexokinase-1 expression in human MCF7 cell mitochondria at 16 uM measured after 24 hrs by DAPI staining based immunofluorescence microscopy; format: functional
MCF7 [24] = assay: Induction of apoptosis in human MCF7 cells assessed as decrease in Bcl-2/Bax ratio by western blot analysis; format: functional, cell-based; conditions: DDE = dose-dependent effect
MCF7 [25] = assay: Antitumor activity against human MCF7 cells xenografted in BALB/C mouse assessed as decrease in cell proliferation at 20 mg/kg, po by Ki67 staining based immunohistochemical analysis; format: functional, organism-based
[26] = Toxicity in BALB/C mouse xenografted with human MCF7 cells assessed as morphological changes in heart at 10 to 20 mg/kg, po by hematoxylin and eosin staining based analysis; format: organism-based; conditions: in vivo, dose 10-20 mg/kg
MCF7 [27] = assay: Induction of apoptosis in human MCF7 cells assessed as total apoptotic cells at 0.5 uM incubated for 48 hrs by annexin V-FITC staining based flow cytometry; format: functional
LCC2 [28] = assay: Induction of apoptosis in tamoxifen-resistant human LCC2 cells assessed as increase in Bax level at 5 to 30 uM incubated for 48 hrs by western blot analysis; format: functional, cell-based; conditions: dose 5-30 µM
[29] = Toxicity in BALB/C mouse xenografted with human MCF7 cells assessed as mortality at 10 to 20 mg/kg, po measured after 34 days; format: organism-based; conditions: in vivo, 816 h, dose 10-20 mg/kg, time 34 day

O=S(=O)(Oc1cccc2ccccc12)C1CC2OC1C(c1ccc([Se]c3ccccc3)cc1)=C2c1ccc(O)cc1 (centres undefined)
Tmax [1]: 2 h
Activity [2]: Active
Activity [3]: Non-Toxic
AUC [4]: 1550 ng·h/mL
Activity (MCF7 [5]): Active
half-life [6]: 4.65 h
Activity [7]: Non-Toxic
Activity (LCC2 [8]): Active
Tmax [9]: 4.98 min
Activity (LCC2 [10]): Active
IC50 at 72 h [11]: > 60 µM
Activity (LCC2 [12]): Active
Activity (LCC2 [13]): Dde
bioavailability [14]: 23.2%
Activity (MCF7 [15]): Active
Activity (MCF7 [16]): Active
Activity (MCF7 [17]): Active
Cmax [18]: 400 ng/mL
clearance [19]: 52.7 mL/min/kg
Activity (MCF7 [20]): Active
Activity (MCF7 [21]): 9.61%
Activity [22]: Dde
Activity (MCF7 [23]): Active
Activity (MCF7 [24]): Dde
Activity (MCF7 [25]): Active
Activity [26]: Non-Toxic
Activity (MCF7 [27]): 9.16%
Activity (LCC2 [28]): Active
Activity [29]: Non-Toxic
